SMILES strings stand for the structures.

Data set [1] has as its system HT29 cells (human colon carcinoma). Nature of the data set: Antiproliferative activity, 72 h treatment, SRB assay, HT29. Type of data set: cell-based. For orientation: In SRB staining, fixed cells bind dye roughly in proportion to their protein.
Description: HT29 and HT29/Mit (line obtained by prolonged exposure to mitoxantrone, and characterised by overerexpression of BCRP, which confers cross resistance to topotecan, irinotecan and to its metabolite SN38): maintained in McCoy 5A medium+10% FCS.
Data set [2] relates to HCT116 cells (human colon carcinoma). Nature of the data set: Antiproliferative activity, 72 h treatment, SRB assay, HCT116. Type of data set: cell-based. The protocol:
HCT116 maintained in RPMI 1640 medium+10% FCS.
The cells (HT29 and HT29/Mit:. 40,000 cells/ml, LoVo, LoVo/Dx and HCT116: 50,000 cells/ml) are seeded in 100 μl of the respective culture media in 96-well plates. 24 hours after seeding, an aliquot (10 μl) of drug at the various concentrations is added. In the samples in which the effect of the combination of two compounds is to be tested the inhibitor is added immediately before the cytotoxic. For each dose or combination of doses/drugs the effect of the treatment is determined in 4-8 replicates.
After 72 hours of treatment the antiproliferative effect is evaluated using the sulforhodamine B (SRB) assay: the cells are fixed by adding 25 μl of 50% TCA to each well and left for 1 hour at 4° C. After washing them with water and allowing them to dry, 100 μl of 0.4% SRB in 1% acetic acid are added and left for 30 minutes at room temperature. After 4 washes in 1% acetic acid, they are left to dry, then the dye fixed by the proteins is dissolved under basic conditions with 100 μl 10 mM cold Tris and the solution is read using a spectrophotometer at 550 nm.
Percentage cell growth is calculated as the optical density of treated samples compared to the optical density of controls (untreated cells).
The Combination Index (C.I.) was determined according to Kern's method, 1988 (who continued from Drewinko B, 1976) (Kern D. H., Cancer Res. 48, 117-121, 1988; Drewinko B., Cancer Biochem. Biophys. 1, 187-195, 1976) by means of the following formula: […], where SFa and SFb are the fractions of cells surviving to treatment with compound a and b, respectively; SFab is the fraction surviving to the combination of compounds a and b.

For data set [3], the system named is SH-SY5Y cells (human neuroblastoma). As to the kind of experiment: Antiproliferative activity, 48 h treatment, ATPlite luminescence assay, SH-SY5Y. As to conditions: Homo sapiens, SH-SY5Y, 48 h, read-out: Antiproliferative activity (IC50 ± S.D., μM) SHSY-5Y. Type of data set: cell-based. The protocol:
(§1) SH-SY5Y and SK-N-BE(2): maintained in HAM-F12 medium+10% FCS.
(§2) 24 hours after seeding, an aliquot (10 μl) of the drug at the various concentrations is added (for each concentration there are 3 replicates). After 48 hours of treatment the antiproliferative effect is evaluated with a luminescence assay (Perkin Elmer Life Sciences ATPlite):
(§3) 50 μl of a lysis solution are added to each well followed by an equal volume of a solution containing luciferase and D-luciferin. The ATP present in all the metabolically active cells brings about the transformation reaction of D-luciferin, catalysed by luciferase, to produce a luminescent signal as described in the following scheme: ATP+D-luciferin+O2→Oxyluciferin+AMP+PPi+CO2+Light
(§4) The luminescence produced (expressed in counts per second, CPS) is measured by means of a microplate scintillation analyzer (Perkin Elmer Life Sciences Top Count).
(§5) Percentage inhibition of luminescence in the treated cells compared to the control is calculated; concentration-response curves are then analysed using Grafit v.5.0.
(In general: In ATP-based viability assays light output follows the ATP content of the culture.)

Data set [4] has as its system SK-N-BE(2) cells (human neuroblastoma). Nature of the data set: Antiproliferative activity, 48 h treatment, ATPlite luminescence assay, SK-N-BE(2). Type of data set: cell-based. Particulars: Homo sapiens, SKNBE2, 48 h, read-out: Antiproliferative activity (IC50 ± S.D., μM) SK-N-BE(2). The protocol: as §1, §2, §3, §4, §5
Data set [5] has as its system A2780 cells (human ovarian carcinoma). As to the kind of experiment: Antiproliferative activity, 48 h treatment, ATPlite luminescence assay, A2780. Type of data set: cell-based. As to conditions: Homo sapiens, A2780, 48 h, read-out: Antiproliferative activity (IC50 ± S.D., μM) A2780. Here is the method: as §2, §3, §4, §5
For data set [6], the system named is H460 spontaneous lung metastasis. As to the kind of experiment: H460 xenograft, spontaneous lung metastasis (antimetastatic activity). Type of data set: in vivo, athymic Swiss nude mice. Particulars: topotecan 1 mg/kg, compound of example 2 30 mg/kg p.o. Here is the method:
At day 63, tumor-bearing mice were sacrificed by cervical dislocation and their lungs were removed and weighed. Lung lobes were spliced between two glass slides and the metastatic nodules were macroscopically counted against a bright light (Corti C, J. Cancer Res. Clin. Oncol. 122, 154-60, 1996). […] Reading of metastasis was performed by two independent observers, unaware of the experimental group, with an interobserver reproducibility >95%. The metastatic nature of these areas was confirmed by histological analysis of digital images obtained by Image Analysis System software (Delta System, Rome, Italy).

The nature of data set [7]: Drug tolerability in H460 tumor-bearing mice (lethal toxicity). Particulars: athymic Swiss nude, mouse, in vivo, 8 weeks. The protocol: The effects of the compounds of the invention and/or topotecan on the growth of primary tumors and spontaneous lung metastasis were tested in mice inoculated s.c. in the right flank with H460 ascitic tumor cells (2×10^6/mouse). Each control or drug-treated group included 9-11 mice. The s.c. tumor growth was followed by biweekly measurements of tumor diameters with a Vernier caliper. Drug treatment was delivered orally, for 8 weeks, from day 1. Topotecan was delivered at the dose of 1 mg/kg and compounds of the invention were delivered at the dose of 30 mg/kg; in the combination group the compounds of the invention were delivered almost 1 hour after topotecan treatment. Control mice were solvent-treated orally in parallel with drug treatments.
Drug efficacy was assessed as mean percentage tumor weight inhibition in drug-treated versus control mice expressed as tumor weight inhibition % (TWI %)=100−(mean tumor weight treated/mean tumor weight control×100), evaluated during and after drug treatment. Drug tolerability was assessed in tumor-bearing mice as either lethal toxicity, i.e., any death in treated mice occurring before any control death, or percentage body weight loss (BWL %)=100−(body weight on day x/body weight on day 1×100), where x represents a day after or during the treatment period.

As usually defined, the IC50 is the concentration that gives 50% inhibition. In the case of `CCOc1cc(C(=O)NC2CC(C)(C)NC(C)(C)C2)ccc1-c1cc2cc(Cl)c(Cl)cc2[nH]1` [Example 2], in data set [1] (HT29 model, subtoxic and subactive concentrations (<1 μM) of compound of example 2), the “Effect on antiproliferative activity of topotecan” value is recorded as “enhanced antiproliferative activity of topotecan”. Moreover, the IC50 in data set [1] (Homo sapiens, HT-29, 72 h, read-out: Antiproliferative activity (IC50 ± S.D., μM) HT-29) amounted to 1 ± 0.1 µM; in data set [2] (Homo sapiens, HCT-116, 72 h, read-out: Antiproliferative activity (IC50 ± S.D., μM) HCT116) it was 2.4 ± 0.9 µM; in data set [3], 6.8 ± 0.5 µM; in data set [4], 3.7 ± 0.2 µM; in data set [5] it was 1.9 ± 0.1 µM. Also, the “Antiproliferative activity in the human tumour cell lines used (summary of Table 1)” value in data set [1] (all lines: 72 hours (HT29, HT29/Mit, LoVo, LoVo/DX, HCT116) or 48 hours (HepG2, SHSY-5Y, SK-N-BE(2), A2780)) is on record as “high antiproliferative potency”. Also, in data set [2] (HCT116 line, subtoxic and subactive concentrations), the Interaction with cisplatin result is recorded as “significant synergistic effect”. In addition, the “Lung No. Metastasis (range)” value was “reduced” in data set [6] (day 63) and 15 (3-56) in data set [6] (day 63, listed as Compound of example 2). Further, the “Lung Weight (mg) (mean ± S.D.)” value in data set [6] (day 63) is on record as 177 ± 30 mg. Besides, the “Lung metastasis Inhibition %” value in data set [6] (inhibition of number of metastasis vs controls) came to 42%. Besides, the “Tox/Tot (any death in treated mice occurring before any control mice)” value in data set [7] is 0/10.

For the origin of these results see patent US20070299084A1, “Indole Derivatives Useful for Treating Resistance to Antitumor Agents” (NIKEM RESE S.R.L., priority 2004, published 2007).
